Test results published in patent US20180099931A1 (AbbVie S.à.r.l., priority 2016, published 2018).
Read-outs that look alike come from different tables or passages of the source.

Target: T1, F508delCFTR (Homo sapiens, UniProt P13569, DEL508-508)
T1 construct: expressed in transfected cells; host or cells: CFBE41o- human lung-derived epithelial cells (CFBE4lo-F508delCFTR-HRP), doxycycline-inducible
Test: Cell Surface Expression-Horse Radish Peroxidase (CSE-HRP) Assay;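 for Maximum % activity (with co-corrector): co-corrector and positive control are both the same reference corrector at 2 µM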;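 for Maximum % activity (without co-corrector): percent of the 2 µM on-plate positive control corrector response above DMSO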
Type: cell-based
Conditions: for Maximum % activity (with co-corrector) / Emax: maximum at any tested concentration, normalized to on-plate positive control; for Emax: read-out: Maximum % activity (without co-corrector)

[1] = CSE-HRP, test compound without co-corrector, read-out: EC50 (without co-corrector)
[2] = CSE-HRP, with co-corrector (2 μM of 3-[(2R,4R)-4-({[1-(2,2-difluoro-1,3-benzodioxol-5-yl)cyclopropyl]carbonyl}amino)-7-methoxy-3,4-dihydro-2H-chromen-2-yl]benzoic acid), read-out: EC50 (with co-corrector)
[3] = CSE-HRP, with co-corrector (2 μM)
[4] = test compound without co-corrector
[5] = test compound without co-corrector, read-out: EC50 (without co-corrector)
[6] = with co-corrector (2 μM of 3-[(2R,4R)-4-({[1-(2,2-difluoro-1,3-benzodioxol-5-yl)cyclopropyl]carbonyl}amino)-7-methoxy-3,4-dihydro-2H-chromen-2-yl]benzoic acid)
[7] = with co-corrector (2 μM of 3-[(2R,4R)-4-({[1-(2,2-difluoro-1,3-benzodioxol-5-yl)cyclopropyl]carbonyl}amino)-7-methoxy-3,4-dihydro-2H-chromen-2-yl]benzoic acid), read-out: EC50 (with co-corrector)

T1 sequence (P13569 with tags, fused parts or gaps DEL508-508): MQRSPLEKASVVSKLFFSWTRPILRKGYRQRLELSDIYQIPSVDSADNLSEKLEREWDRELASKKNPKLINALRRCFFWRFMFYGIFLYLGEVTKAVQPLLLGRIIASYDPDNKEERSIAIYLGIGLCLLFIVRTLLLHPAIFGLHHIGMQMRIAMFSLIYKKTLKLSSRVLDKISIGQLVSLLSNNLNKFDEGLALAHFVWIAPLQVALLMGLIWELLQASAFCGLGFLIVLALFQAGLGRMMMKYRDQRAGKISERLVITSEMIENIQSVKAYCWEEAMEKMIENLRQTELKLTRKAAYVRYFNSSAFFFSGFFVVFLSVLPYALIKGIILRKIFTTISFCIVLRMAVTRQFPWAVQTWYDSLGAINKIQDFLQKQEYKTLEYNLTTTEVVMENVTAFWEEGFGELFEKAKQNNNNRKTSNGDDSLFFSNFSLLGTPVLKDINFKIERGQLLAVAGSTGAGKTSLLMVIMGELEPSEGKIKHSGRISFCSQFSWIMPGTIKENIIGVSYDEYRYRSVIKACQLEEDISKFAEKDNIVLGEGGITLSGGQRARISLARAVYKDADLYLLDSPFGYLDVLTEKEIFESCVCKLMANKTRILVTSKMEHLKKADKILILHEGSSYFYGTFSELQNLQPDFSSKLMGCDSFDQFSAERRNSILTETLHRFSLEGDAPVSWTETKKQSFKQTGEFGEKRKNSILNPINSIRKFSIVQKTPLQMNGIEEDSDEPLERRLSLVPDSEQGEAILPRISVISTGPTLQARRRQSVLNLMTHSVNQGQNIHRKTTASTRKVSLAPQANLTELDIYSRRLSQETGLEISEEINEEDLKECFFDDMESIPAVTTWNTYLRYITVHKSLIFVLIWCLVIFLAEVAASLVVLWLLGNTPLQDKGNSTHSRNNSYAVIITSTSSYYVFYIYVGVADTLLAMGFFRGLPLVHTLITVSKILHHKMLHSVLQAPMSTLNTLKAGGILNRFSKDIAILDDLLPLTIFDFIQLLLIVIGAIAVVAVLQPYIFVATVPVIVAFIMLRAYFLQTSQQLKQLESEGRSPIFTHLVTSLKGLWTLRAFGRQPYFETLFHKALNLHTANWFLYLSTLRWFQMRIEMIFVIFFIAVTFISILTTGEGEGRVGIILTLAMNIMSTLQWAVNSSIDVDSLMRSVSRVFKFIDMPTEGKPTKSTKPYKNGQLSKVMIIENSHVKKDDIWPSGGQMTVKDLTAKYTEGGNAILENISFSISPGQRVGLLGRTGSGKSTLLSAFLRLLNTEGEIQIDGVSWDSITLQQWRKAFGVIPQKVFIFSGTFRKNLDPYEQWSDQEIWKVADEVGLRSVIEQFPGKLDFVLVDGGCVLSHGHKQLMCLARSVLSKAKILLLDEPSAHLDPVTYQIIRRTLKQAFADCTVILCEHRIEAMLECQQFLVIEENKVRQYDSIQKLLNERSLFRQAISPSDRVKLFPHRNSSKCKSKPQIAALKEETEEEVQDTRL

EC50 [1] [nM] | EC50 [2] [nM] | Maximum % activity (with co-corrector) [3] | Emax (CSE-HRP, without co-corrector) [%] | Emax [4] [%] | EC50 [5] [nM] | Maximum % activity (with co-corrector) [6] | EC50 [7] [nM] | Maximum % activity (with co-corrector) (with co-corrector (2 μM)) | Emax (without co-corrector) [%] | SMILES
1000 to 10000 | 1000 to 10000 | +++ (≥350) | 100 to 200 |  |  |  |  |  |  | COc1cc(F)ccc1CN[C@H]1[C@H](C(C)(C)C)[C@@H](C(=O)O)N(C(=O)C2CCCCC2)[C@H]1c1ccccc1 [II-118]
 |  |  |  | < 100 | 1000 to 10000 | ++ (≥150 and <350) | 1000 to 10000 |  |  | CC(C)(C)[C@@H]1[C@@H](Nc2ccc(C(F)(F)F)cn2)[C@@H](c2ccccc2)N(C(=O)C2CCCCC2)[C@H]1C(=O)O (racemic) [III-5]
1000 to 10000 | 1000 to 10000 | +++ (≥350) | 100 to 200 |  |  |  |  |  |  | COc1ccc(C(C)(C)C)cc1CN[C@H]1[C@H](C(C)(C)C)[C@@H](C(=O)O)N(C(=O)Cc2nn(C)c(=O)c3ccccc23)[C@H]1c1ccccc1 [II-221]
 |  |  |  |  | < 1000 |  | < 1000 | +++ (≥350) | > 200 | COc1ccc(CC2CCCCC2)cc1CN[C@H]1[C@H](C(C)(C)OC)[C@@H](C(=O)O)N(C(=O)C2CCCCC2)[C@H]1c1ccccc1 [Example I-118]
 |  |  |  |  | 1000 to 10000 |  | 1000 to 10000 | +++ (≥350) | < 100 | COc1cccc([C@@H]2[C@H](NCc3ccccc3OC(F)F)[C@@H](C(C)(C)C)[C@H](C(=O)O)N2C(=O)C2CCCCC2)n1 (racemic) [Example I-16]
 |  |  |  | > 200 | 1000 to 10000 | +++ (≥350) | < 1000 |  |  | COc1ccc(C(C)(C)C)cc1CN[C@H]1[C@H](C(C)(C)C)[C@@H](C(=O)O)N(C(=O)C2COc3c(cccc3OC)C2)[C@H]1c1ccccc1 (stereo partly drawn) [II-402]
1000 to 10000 | 1000 to 10000 | +++ (≥350) | 100 to 200 |  |  |  |  |  |  | CC[C@H](C(=O)N1[C@H](C(=O)O)[C@@H](C(C)(C)C)[C@H](NCc2cc(C(C)(C)C)ccc2OC)[C@@H]1c1cccnc1OC)c1ccccc1 [Example I-253]
 |  |  |  | 100 to 200 | 1000 to 10000 | +++ (≥350) | 1000 to 10000 |  |  | COC1(CN[C@H]2[C@H](C(C)(C)C)[C@@H](C(=O)O)N(C(=O)C3CCCCC3)[C@H]2c2ccccc2)CCCCC1 [II-394]
 |  |  |  |  | 1000 to 10000 |  | 1000 to 10000 | +++ (≥350) | 100 to 200 | COc1ccc(C(C)(C)C)cc1CN[C@H]1[C@H](C(C)(C)C)[C@@H](C(=O)O)N(C(=O)c2cc(C#N)ccc2OC)[C@H]1c1ccccc1 [Example I-90]
 |  |  |  |  | 1000 to 10000 |  | < 1000 | +++ (≥350) | > 200 | COc1ccc(C23CC(C2)C3)cc1CN[C@H]1[C@H](C(C)(C)C)[C@@H](C(=O)O)N(C(=O)OC(C)C)[C@H]1c1ccccc1 [Example I-210]
 |  |  |  | 100 to 200 | < 1000 |  | < 1000 | +++ (≥350) |  | COc1cc2c(cc1CN[C@H]1[C@H](C(C)(C)C)[C@@H](C(=O)O)N(C(=O)C3CCCCC3)[C@H]1c1ccccc1)C(C)(C)CCC2(C)C [III-119]
 |  |  |  | < 100 | 1000 to 10000 | ++ (≥150 and <350) | 1000 to 10000 |  |  | COc1cc(C(F)(F)F)ccc1CN[C@H]1[C@H](C(C)(C)C)[C@@H](C(=O)O)N(C(=O)[C@H]2CCCCO2)[C@H]1c1cccnc1N(C)C [II-494]
1000 to 10000 | < 1000 | +++ (≥350) | < 100 |  |  |  |  |  |  | COc1ccc(Cl)c2c1CN([C@H]1[C@H](C(C)(C)C)[C@@H](C(=O)O)N(C(=O)[C@@H]3CCCCO3)[C@H]1c1ccccc1C(C)C)C2 [Example I-308]
 |  |  |  | 100 to 200 | 1000 to 10000 | +++ (≥350) | < 1000 |  |  | COc1ncc(-c2ccc(F)cc2F)cc1CN[C@H]1[C@H](C(C)(C)C)[C@@H](C(=O)O)N(C(=O)C2CCCCC2)[C@H]1c1ccccc1 [II-344]
1000 to 10000 | < 1000 | +++ (≥350) | > 200 |  |  |  |  |  |  | COc1ncc(Br)cc1CN[C@H]1[C@H](C(C)(C)C)[C@@H](C(=O)O)N(C(=O)[C@@H]2CCCCO2)[C@H]1c1ccccc1C [Example I-287]
1000 to 10000 | < 1000 | +++ (≥350) | > 200 |  |  |  |  |  |  | COc1ccc(C(C)(C)C)cc1CN[C@H]1[C@H](C(C)(C)C)[C@@H](C(=O)O)N(C(=O)CC23CC(C2)C3)[C@H]1c1ccccc1 [II-177]
1000 to 10000 | 1000 to 10000 | +++ (≥350) | > 200 |  |  |  |  |  |  | COc1ccc(C(C)(C)C)cc1CN[C@H]1[C@H](C(C)(C)C)[C@@H](C(=O)O)N(C(=O)Cc2cccc(F)c2)[C@H]1c1ccccc1 [II-199]
 |  |  |  |  | 1000 to 10000 |  | 1000 to 10000 | +++ (≥350) | 100 to 200 | COc1ccc(C23CC(C2)C3)cc1CN[C@H]1[C@H](C(C)(C)C)[C@@H](C(=O)O)N(C(=O)[C@H]2CCCCO2)[C@H]1c1cccnc1N(C)C [Example 52, (2S,3S,4S,5S)-4-({[5-(bicyclo[1.1.1]pentan-1-yl)-2-methoxyphenyl]methyl}amino)-3-tert-butyl-5-[2-(dimethylamino)pyridin-3-yl]-1-[(2R)-oxane-2-carbonyl]pyrrolidine-2-carboxylic acid]
 |  |  |  | > 200 | < 1000 | +++ (≥350) | < 1000 |  |  | COc1ccc(C(C)(C)C)cc1CN[C@H]1[C@H](C(C)(C)C)[C@@H](C(=O)O)N(C(=O)OCC(C)(C)C)[C@H]1c1ccccc1 [II-392]
 |  |  |  |  | 1000 to 10000 |  | 1000 to 10000 | +++ (≥350) | > 200 | COc1ccc(C(C)(C)C)cc1CN[C@H]1[C@H](C(C)(C)C)[C@@H](C(=O)O)N(C(=O)C2CCCS(=O)(=O)C2)[C@H]1c1ccccc1 (stereo partly drawn) [Example I-66]
 |  |  |  |  | 1000 to 10000 |  | < 1000 | +++ (≥350) | > 200 | COc1ccc(C(C)(C)C)cc1CN[C@H]1[C@H](C(C)(C)C)[C@@H](C(=O)O)N(C(=O)[C@@H](Cc2ccccc2)OC)[C@H]1c1ccccc1 [Example 32, (2S,3S,4S,5S)-3-tert-butyl-4-{[(5-tert-butyl-2-methoxyphenyl)methyl]amino}-1-[(2R)-2-methoxy-3-phenylpropanoyl]-5-phenylpyrrolidine-2-carboxylic acid]
1000 to 10000 | 1000 to 10000 | +++ (≥350) | 100 to 200 |  |  |  |  |  |  | COc1cc(Cl)ccc1CN[C@H]1[C@H](C(C)(C)C)[C@@H](C(=O)O)N(C(=O)C2CCCCC2)[C@H]1c1ccccc1 [II-99]
 |  |  |  | < 100 | 1000 to 10000 |  | 1000 to 10000 | ++ (≥150 and <350) |  | COc1ncc(C(F)(F)F)cc1CN[C@H]1[C@H](C2(C)CC2)[C@@H](C(=O)O)N(C(=O)C2CCCCC2)[C@H]1c1ccccc1 [III-189]
 |  |  |  | < 100 | 1000 to 10000 |  | 1000 to 10000 | ++ (≥150 and <350) |  | COc1cc(C(F)(F)F)ccc1CN[C@@H]1[C@@H](C(C)(C)C)[C@H](C(=O)O)N(C(=O)C2CCC3(CC2)CC3)[C@@H]1c1ccccc1 (racemic) [III-105]
